Measurements reported in PMC3846293 (Bioorganic & medicinal chemistry letters, 2013).
Marks after values point to notes of the source that are not given here.

Columns and labels:
rat mGlu5 = rat mGlu5 (Rattus norvegicus, UniProt P31424); assay: Calcium mobilization mGlu5 assay; type: cell-based; conditions: for mGlu5 pIC50 (± SEM) / IC50: HEK293A cells expressing rat mGlu5, EC80 glutamate; for mGlu5 pIC50 (± SEM): average of n ≥ 3; for IC50: read-out: mGlu5 IC50
[1] = prior PK studies in rats; cited from earlier work
marble burying [2] = assay: Mouse marble burying model of anxiety; conditions: IP dosing, 15 minute pretreatment; all doses greater than or equal to 3 mg/kg; n = 8 per dose; P < 0.001 vs. vehicle
[3] = system: panel of 68 clinically relevant GPCRs, ion channels, kinases, and transporters; assay: Radioligand binding assay panel; conditions: 10 μM compound; significant = more than 50% inhibition of radioligand binding
marble burying [4] = conditions: mice; ref 7a,d; cited from earlier work

Chain of rat mGlu5 (P31424 21-1203): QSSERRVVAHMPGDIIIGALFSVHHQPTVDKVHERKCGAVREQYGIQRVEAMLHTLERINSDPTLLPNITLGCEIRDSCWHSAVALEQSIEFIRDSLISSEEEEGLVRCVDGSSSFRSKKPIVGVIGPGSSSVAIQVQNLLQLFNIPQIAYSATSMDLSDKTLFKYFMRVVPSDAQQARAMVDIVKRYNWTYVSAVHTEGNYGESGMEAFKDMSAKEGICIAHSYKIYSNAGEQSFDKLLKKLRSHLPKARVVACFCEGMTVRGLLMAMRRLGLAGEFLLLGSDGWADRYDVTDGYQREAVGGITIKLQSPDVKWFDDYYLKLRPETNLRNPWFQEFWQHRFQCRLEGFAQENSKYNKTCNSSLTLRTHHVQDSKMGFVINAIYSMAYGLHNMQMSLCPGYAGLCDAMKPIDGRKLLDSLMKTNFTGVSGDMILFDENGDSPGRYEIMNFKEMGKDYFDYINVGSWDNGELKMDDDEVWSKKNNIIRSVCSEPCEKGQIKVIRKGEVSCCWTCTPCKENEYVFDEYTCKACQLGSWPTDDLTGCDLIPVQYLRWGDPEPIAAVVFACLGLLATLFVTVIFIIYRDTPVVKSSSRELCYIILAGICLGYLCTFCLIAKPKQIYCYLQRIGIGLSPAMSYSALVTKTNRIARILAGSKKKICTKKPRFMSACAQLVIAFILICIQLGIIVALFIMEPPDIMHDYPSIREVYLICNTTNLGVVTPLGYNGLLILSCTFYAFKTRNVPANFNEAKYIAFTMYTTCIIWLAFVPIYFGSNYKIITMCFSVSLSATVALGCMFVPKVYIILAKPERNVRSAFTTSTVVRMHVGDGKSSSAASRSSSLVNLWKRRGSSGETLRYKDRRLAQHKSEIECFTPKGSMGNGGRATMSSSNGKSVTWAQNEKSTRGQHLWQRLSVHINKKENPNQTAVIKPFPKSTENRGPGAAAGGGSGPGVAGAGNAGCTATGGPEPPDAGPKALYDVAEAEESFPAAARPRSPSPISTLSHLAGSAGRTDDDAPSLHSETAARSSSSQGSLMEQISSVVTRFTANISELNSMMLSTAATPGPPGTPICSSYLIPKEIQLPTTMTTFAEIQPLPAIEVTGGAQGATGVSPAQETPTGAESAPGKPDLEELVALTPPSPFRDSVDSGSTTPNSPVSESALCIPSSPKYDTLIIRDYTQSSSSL

O=C(Nc1cccc(Cl)c1)c1cccc(Oc2cccnc2)c1 [Compound 3]
fold less potent than 2 (rat mGlu5; mGlu5 potency vs 2): more than 20 fold

O=C(Nc1ccncn1)c1cccc(Oc2cccnc2)c1 [Compound 11]
mGlu5 pIC50 (± SEM) (rat mGlu5): < 5.0 ^c
IC50 (rat mGlu5): > 10 µM

Cc1nsc(NC(=O)c2cccc(Oc3cccnc3)c2)n1 [Compound 19]
mGlu5 pIC50 (± SEM) (rat mGlu5): < 4.5
IC50 (rat mGlu5): > 30 µM

O=C(Nc1nc(C(F)(F)F)cs1)c1cccc(Oc2cccnc2)c1 [Compound 20]
mGlu5 pIC50 (± SEM) (rat mGlu5): < 4.5
IC50 (rat mGlu5): > 30 µM

Cc1csc(NC(=O)c2cc(F)cc(Oc3cncnc3)c2)n1 [Compound 24]
clearance in rats [1]: moderate to high clearance
inhibition of marble burying (marble burying [2]): Statistically significant inhibition
responses in radioligand binding panel of 68 targets [3]: no significant responses

CCCc1csc(NC(=O)c2cc(F)cc(Oc3cncnc3)c2)n1 [Compound 33]
fold loss of potency compared to 24 (rat mGlu5; mGlu5 potency vs 24): 10 fold

CCCc1csc(NC(=O)c2cc(Cl)cc(Oc3cncnc3)c2)n1 [Compound 38]
fold loss of potency compared to 25 (rat mGlu5; mGlu5 potency vs 25): 7 fold

Cc1ncc(Oc2cc(Cl)cc(C(=O)Nc3ccc(F)cn3)c2)cn1 [Compound 75]
fold loss of potency vs. 28 (rat mGlu5; mGlu5 potency vs 28): > 100 fold

Cc1cccc(NC(=O)c2cc(Cl)cc(Oc3cnc(C)nc3)c2)n1 [Compound 76]
fold decrease in potency vs. 66 (rat mGlu5; mGlu5 potency vs 66): 5 fold

Cc1cccc(C#Cc2ccccc2)n1 [MPEP]
efficacy in marble burying model (marble burying [4]): effective

CN1CC(=O)NC1=NC(=O)Nc1cccc(Cl)c1 [fenobam]
efficacy in marble burying model (marble burying [4]): effective
